Measured values reported in US8076351B2, “Camptothecin derivatives with antitumor activity” (Indena S.p.A., priority 2006, dated 2011).
In brackets after ≈: the same amount, converted by molar mass. Like-named read-outs stand apart in the source and are kept apart here.

What was measured:
[1] = tested on: NCI-H460 cell line (NSCL cancer); assay: Cell growth inhibition assay (cytotoxicity, cell count); type: cell-based, human
Method: The compounds of the invention were tested in a cytotoxicity assay on a wide spectrum of tumour cells. By way of example, the cytotoxicity data on the NCI-H460 cell line (NSCL cancer) concerning two compounds of formula (I) are reported, using camptothecin and the drugs Topotecan and SN-38 as references:
H460 Cells from human large cell lung tumor were cultured in RPMI-1640 medium containing 10% foetal calf serum. Cell sensitivity was determined by cell growth inhibition assay after 1 or 72 hr drug exposure. The cells in logarithmic growth were collected and seeded in duplicate in 6-wells plates. […] IC50 is defined as the concentration inhibiting by 50% cell growth compared with untreated controls growth.

[2] = target: T1, human recombinant enzyme (full length top1) (Homo sapiens, UniProt P11387); assay: Topoisomerase-I-dependent DNA rupture assay, DNA damage persistence; type: biochemical; details: 30 min incubation with 10 μM drug
T1 construct: the human recombinant enzyme (full length top1)
T1 sequence (P11387 1-765): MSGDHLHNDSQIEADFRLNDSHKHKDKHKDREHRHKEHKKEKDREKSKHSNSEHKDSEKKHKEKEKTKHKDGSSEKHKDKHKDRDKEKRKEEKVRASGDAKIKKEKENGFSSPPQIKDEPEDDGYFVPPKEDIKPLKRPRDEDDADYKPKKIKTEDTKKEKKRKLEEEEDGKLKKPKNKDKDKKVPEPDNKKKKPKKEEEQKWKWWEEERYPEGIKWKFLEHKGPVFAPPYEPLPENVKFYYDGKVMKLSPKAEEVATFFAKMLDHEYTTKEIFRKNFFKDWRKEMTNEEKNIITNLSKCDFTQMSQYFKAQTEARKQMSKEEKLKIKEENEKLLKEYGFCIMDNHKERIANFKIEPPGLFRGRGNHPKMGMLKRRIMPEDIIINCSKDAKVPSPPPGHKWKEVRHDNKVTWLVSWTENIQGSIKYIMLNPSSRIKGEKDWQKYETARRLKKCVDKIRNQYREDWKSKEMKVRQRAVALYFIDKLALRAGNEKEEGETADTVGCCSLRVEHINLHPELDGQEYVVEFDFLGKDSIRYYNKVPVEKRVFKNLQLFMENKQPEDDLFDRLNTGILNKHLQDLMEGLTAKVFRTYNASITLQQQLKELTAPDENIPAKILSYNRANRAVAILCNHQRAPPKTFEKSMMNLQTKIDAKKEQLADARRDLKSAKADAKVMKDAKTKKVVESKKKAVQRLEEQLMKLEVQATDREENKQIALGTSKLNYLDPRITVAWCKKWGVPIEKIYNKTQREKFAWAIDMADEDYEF
Method: DNA ruptures were determined using a 751-bp BamHI-EcoRI DNA SV40 purified gel (Beretta G L, Binaschi M, Zagni A N D, Capuani L, Capranico G. Tethering a type IB topoisomerase to a DNA site by enzyme fusion to a heterologous site-selective DNA-binding protein domain. Cancer Res 1999; 59:3689-97). DNA fragments were only labeled at 3′. The DNA rupture reaction (20,000 cpm/sample) was carried out in […] of 10 mM Tris-HCL (pH 7.6), 150 mM KCl, 5 mM MgCl2, 15 μg/mL BSA, 0.1 mM thiothreitol, and the human recombinant enzyme (full length top1) for 30 min at 37° C. The reactions were blocked using 0.5% SDS and 0.3 mg/mL K proteinase for 45 min. at 42° C. DNA damage persistence was tested at different times adding 0.6M NaCl after 30 min. incubation with 10 μM of the drug. After precipitation, DNA was resuspended in denaturation buffer (80% formamide, 10 mM NaOH, 0.01 M EDTA and 1 mg/mL dye) before seeding in desaturating gel (7% polyacrylamide in TBE buffer).

[3] = NCI-H460, H460 human large cell lung tumor cells, 1 or 72 hr drug exposure, counted with Coulter counter 72 hours after exposure, read-out: NCI-H460 IC50 (μg/mL) Cell count
[4] = Time 0 min after adding 0.6M NaCl
[5] = Time 1 min after adding 0.6M NaCl
[6] = Time 5 min after adding 0.6M NaCl
[7] = Time 10 min after adding 0.6M NaCl

## CC[C@@]1(O)C(=O)OCc2c1cc1n(c2=O)Cc2cc3ccccc3nc2-1 [Camptothecin]
[1]; [3]
  IC50: 0.115 ± 0.0174 µg/mL (≈ 0.33 µM)
[2]; [4]
  Persitence of DNA damage (%): 100%
[2]; [5]
  Persitence of DNA damage (%): 58%
[2]; [6]
  Persitence of DNA damage (%): 23%
[2]; [7]
  Persitence of DNA damage (%): 20%

## CC[C@@]1(O)C(=O)OCC2=C1C=C1c3nc4ccccc4cc3C3NN=C2N13 (stereo partly drawn) [IDN 6132]
[1]; [3]
  IC50: 17 ± 4.25 µg/mL (≈ 47.2 µM)
[2]; [4]
  Persitence of DNA damage (%): 100%
[2]; [5]
  Persitence of DNA damage (%): 45%
[2]; [6]
  Persitence of DNA damage (%): 32%
[2]; [7]
  Persitence of DNA damage (%): 20%

## CC[C@@]1(O)C(=O)OCc2c1cc1c3nc4ccccc4cc3c3nnc2n13 [IDN 6137, triazole[5,4-c]16a-deoxocamptothecin]
[1]; Homo sapiens, NCI-H460, read-out: NCI-H460 IC50 (μg/mL) Cell count
  IC50: 3.8 ± 1.08 µg/mL (≈ 10.6 µM)

## CCc1c2c(nc3ccc(O)cc13)-c1cc3c(c(=O)n1C2)COC(=O)[C@]3(O)CC [SN38, 10-hydroxy-7-ethylcamptothecin]
[1]; [3]
  IC50: 0.0865 ± 0.0049 µg/mL (≈ 0.22 µM)
[2]; [4]
  Persitence of DNA damage (%): 100%
[2]; [5]
  Persitence of DNA damage (%): 60%
[2]; [6]
  Persitence of DNA damage (%): 33%
[2]; [7]
  Persitence of DNA damage (%): 28%

## CC[C@@]1(O)C(=O)OCc2c1cc1n(c2=O)Cc2cc3c(CN(C)C)c(O)ccc3nc2-1 [Topotecan]
[1]; [3]
  IC50: 0.63 ± 0.44 µg/mL (≈ 1.49 µM)
[2]; [4]
  Persitence of DNA damage (%): 100%
[2]; [5]
  Persitence of DNA damage (%): 65%
[2]; [6]
  Persitence of DNA damage (%): 20%
[2]; [7]
  Persitence of DNA damage (%): 10%
